#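 These data come from cells grown in 96-well plates and exposed to compound for 48 hours at five concentrations. GI50 = concentration required for 50% inhibition of growth. TGI: total growth inhibition.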
# Experiments:
# Assay in all cases: NCI-60 cell line screen, 48 h
# [1] = test system: 786-0 renal
# [2] = test system: A498 renal
# [3] = test system: A549 NSCLC
# [4] = test system: ACHN renal
# [5] = test system: BT-549 breast
# [6] = test system: CAKI-1 renal
# [7] = test system: CCRF-CEM leukemia
# [8] = test system: COLO 205 colon
# [9] = test system: DU-145 prostate
# [10] = test system: EKVX NSCLC
# [11] = test system: HCC-2998 colon
# [12] = test system: HCT-116 colon
# [13] = test system: HCT-15 colon
# [14] = test system: HL-60(TB) leukemia
# [15] = test system: HOP-62 NSCLC
# [16] = test system: HOP-92 NSCLC
# [17] = test system: HS 578T breast
# [18] = test system: HT29 colon
# [19] = test system: IGROV1 ovarian
# [20] = test system: KM12 colon
# [21] = test system: LOX IMVI melanoma
# [22] = test system: M14 melanoma
# [23] = test system: MALME-3M melanoma
# [24] = test system: MCF7 breast
# [25] = test system: MDA-MB-231 breast
# [26] = test system: MDA-MB-435
# [27] = test system: MOLT-4 leukemia
# [28] = test system: NCI-H226 lung
# [29] = test system: NCI-H23 lung
# [30] = test system: NCI-H460 lung
# [31] = test system: NCI-H522 lung
# [32] = test system: NCI/ADR-RES ovarian
# [33] = test system: OVCAR-4 ovarian
# [34] = test system: OVCAR-5 ovarian
# [35] = test system: OVCAR-8 ovarian
# [36] = test system: PC-3 prostate
# [37] = test system: RPMI-8226 leukemia
# [38] = test system: RXF 393 renal
# [39] = test system: SF-268 CNS
# [40] = test system: SF-295 CNS
# [41] = test system: SF-539 CNS
# [42] = test system: SK-MEL-2 melanoma
# [43] = test system: SK-MEL-28 melanoma
# [44] = test system: SK-MEL-5 melanoma
# [45] = test system: SK-OV-3 ovarian
# [46] = test system: SN12C renal
# [47] = test system: SNB-19 CNS
# [48] = test system: SNB-75 CNS
# [49] = test system: SR leukemia
# [50] = test system: SW-620 colon
# [51] = test system: T-47D breast
# [52] = test system: TK-10 renal
# [53] = test system: U251 CNS
# [54] = test system: UACC-257 melanoma
# [55] = test system: UACC-62 melanoma
# [56] = test system: UO-31 renal
# [57] = test system: K-562 leukemia
# [58] = test system: OVCAR-3 ovarian
structure (smiles),measurement,setting,value
CNC(=O)c1cc(-n2ccc3cc(NC(=O)Nc4ccc(N5CCN(C)CC5)c(C(F)(F)F)c4)ccc32)ccn1,GI50,[1],2.03 µM
same,TGI,[1],5.31 µM
same,GI50,[2],3.61 µM
same,TGI,[2],7.07 µM
same,GI50,[3],3.58 µM
same,TGI,[3],7.36 µM
same,GI50,[4],3.85 µM
same,TGI,[4],7.22 µM
same,GI50,[5],2.7 µM
same,TGI,[5],5.75 µM
same,GI50,[6],4.15 µM
same,TGI,[6],8.3 µM
same,GI50,[7],2.54 µM
same,TGI,[7],16 µM
same,GI50,[8],4.21 µM
same,TGI,[8],8.75 µM
same,GI50,[9],3.97 µM
same,TGI,[9],7.52 µM
same,GI50,[10],3.46 µM
same,TGI,[10],6.88 µM
same,GI50,[11],3.53 µM
same,TGI,[11],7.05 µM
same,GI50,[12],1.7 µM
same,TGI,[12],4.87 µM
same,GI50,[13],0.796 µM
same,TGI,[13],3.48 µM
same,GI50,[14],1.44 µM
same,TGI,[14],6.33 µM
same,GI50,[15],3.41 µM
same,TGI,[15],7.46 µM
same,GI50,[16],1.22 µM
same,TGI,[16],4.68 µM
same,GI50,[17],2.03 µM
same,TGI,[17],7.26 µM
same,GI50,[18],0.938 µM
same,TGI,[18],3.59 µM
same,GI50,[19],4.12 µM
same,TGI,[19],8.44 µM
same,GI50,[20],0.866 µM
same,TGI,[20],3.88 µM
same,GI50,[21],2.68 µM
same,TGI,[21],5.95 µM
same,GI50,[22],2.95 µM
same,TGI,[22],6.09 µM
same,GI50,[23],3.2 µM
same,TGI,[23],6.71 µM
same,GI50,[24],2.3 µM
same,TGI,[24],6.34 µM
same,GI50,[25],3.48 µM
same,TGI,[25],7.81 µM
same,GI50,[26],3.67 µM
same,TGI,[26],7.17 µM
same,GI50,[27],0.744 µM
same,TGI,[27],2.91 µM
same,GI50,[28],> 25 µM
same,TGI,[28],> 25 µM
same,GI50,[29],3.87 µM
same,TGI,[29],8.32 µM
same,GI50,[30],4.1 µM
same,TGI,[30],8.4 µM
same,GI50,[31],> 25 µM
same,TGI,[31],> 25 µM
same,GI50,[32],5.3 µM
same,TGI,[32],13.7 µM
same,GI50,[33],3.65 µM
same,TGI,[33],8.62 µM
same,GI50,[34],3.57 µM
same,TGI,[34],7.74 µM
same,GI50,[35],4.27 µM
same,TGI,[35],8.27 µM
same,GI50,[36],3.6 µM
same,TGI,[36],9.56 µM
same,GI50,[37],0.886 µM
same,TGI,[37],4.01 µM
same,GI50,[38],0.633 µM
same,TGI,[38],1.75 µM
same,GI50,[39],3.3 µM
same,TGI,[39],7.43 µM
same,GI50,[40],0.492 µM
same,TGI,[40],1.11 µM
same,GI50,[41],1.2 µM
same,TGI,[41],4.53 µM
same,GI50,[42],4.33 µM
same,TGI,[42],7.95 µM
same,GI50,[43],2.96 µM
same,TGI,[43],6.38 µM
same,GI50,[44],4.28 µM
same,TGI,[44],7.79 µM
same,GI50,[45],4.21 µM
same,TGI,[45],7.75 µM
same,GI50,[46],3.53 µM
same,TGI,[46],7.56 µM
same,GI50,[47],3.49 µM
same,TGI,[47],7.23 µM
same,GI50,[48],1.2 µM
same,TGI,[48],4.98 µM
same,GI50,[49],0.479 µM
same,TGI,[49],2.85 µM
same,GI50,[50],3.41 µM
same,TGI,[50],7.11 µM
same,GI50,[51],3.65 µM
same,TGI,[51],9.08 µM
same,GI50,[52],4.39 µM
same,TGI,[52],8.16 µM
same,GI50,[53],2.43 µM
same,TGI,[53],5.48 µM
same,GI50,[54],3.97 µM
same,TGI,[54],7.6 µM
same,GI50,[55],4.15 µM
same,TGI,[55],8.22 µM
same,GI50,[56],4.27 µM
same,TGI,[56],8.56 µM
C[C@H](Nc1ncnc2ccc(-c3cnc(Cl)c(NS(C)(=O)=O)c3)cc12)c1ccccc1,GI50,[1],1.14 µM
same,TGI,[1],7.48 µM
same,GI50,[2],0.269 µM
same,TGI,[2],2.3 µM
same,GI50,[3],3.17 µM
same,TGI,[3],15.7 µM
same,GI50,[4],2.18 µM
same,TGI,[4],> 100 µM
same,GI50,[5],0.272 µM
same,TGI,[5],2.05 µM
same,GI50,[6],1.11 µM
same,TGI,[6],8.21 µM
same,GI50,[7],5.46 µM
same,TGI,[7],> 100 µM
same,GI50,[8],2.29 µM
same,TGI,[8],7.61 µM
same,GI50,[9],2.73 µM
same,TGI,[9],28.4 µM
same,GI50,[10],1.2 µM
same,TGI,[10],4.36 µM
same,GI50,[11],0.924 µM
same,TGI,[11],6.86 µM
same,GI50,[12],1.68 µM
same,TGI,[12],6.12 µM
same,GI50,[13],0.766 µM
same,TGI,[13],11.2 µM
same,GI50,[14],9.47 µM
same,TGI,[14],> 100 µM
same,GI50,[15],1.3 µM
same,TGI,[15],21 µM
same,GI50,[16],0.28 µM
same,TGI,[16],4.84 µM
same,GI50,[17],0.199 µM
same,TGI,[17],0.862 µM
same,GI50,[18],2.36 µM
same,TGI,[18],19.7 µM
same,GI50,[19],0.278 µM
same,TGI,[19],1.5 µM
same,GI50,[57],7.97 µM
same,TGI,[57],> 100 µM
same,GI50,[20],2.3 µM
same,TGI,[20],11.8 µM
same,GI50,[21],0.344 µM
same,TGI,[21],1.89 µM
same,GI50,[22],1.57 µM
same,TGI,[22],12.6 µM
same,GI50,[23],0.242 µM
same,TGI,[23],1.88 µM
same,GI50,[24],0.277 µM
same,TGI,[24],10.6 µM
same,GI50,[25],1.03 µM
same,TGI,[25],2.7 µM
same,GI50,[26],1.27 µM
same,TGI,[26],10.7 µM
same,GI50,[27],4.33 µM
same,TGI,[27],> 100 µM
same,GI50,[28],0.943 µM
same,TGI,[28],8.41 µM
same,GI50,[29],1.07 µM
same,TGI,[29],5.18 µM
same,GI50,[30],1.39 µM
same,TGI,[30],13.5 µM
same,GI50,[31],2.9 µM
same,TGI,[31],19.4 µM
same,GI50,[32],4.76 µM
same,TGI,[32],19.7 µM
same,GI50,[58],0.627 µM
same,TGI,[58],2.94 µM
same,GI50,[33],1.58 µM
same,TGI,[33],11.7 µM
same,GI50,[34],1.37 µM
same,TGI,[34],11.4 µM
same,GI50,[35],2.27 µM
same,TGI,[35],16 µM
same,GI50,[36],0.806 µM
same,TGI,[36],37.1 µM
same,GI50,[37],4.29 µM
same,TGI,[37],> 100 µM
same,GI50,[39],1.11 µM
same,TGI,[39],10.4 µM
same,GI50,[40],0.971 µM
same,TGI,[40],4.14 µM
same,GI50,[41],1.13 µM
same,TGI,[41],3.87 µM
same,GI50,[42],1.52 µM
same,TGI,[42],3.5 µM
same,GI50,[43],0.491 µM
same,TGI,[43],6.77 µM
same,GI50,[44],1.04 µM
same,TGI,[44],2.21 µM
same,GI50,[45],1.61 µM
same,TGI,[45],7.72 µM
same,GI50,[46],0.773 µM
same,TGI,[46],27.8 µM
same,GI50,[47],1.18 µM
same,TGI,[47],9.94 µM
same,GI50,[48],0.257 µM
same,TGI,[48],4.83 µM
same,GI50,[49],2.1 µM
same,TGI,[49],> 100 µM
same,GI50,[50],2 µM
same,TGI,[50],11.3 µM
same,GI50,[51],0.175 µM
same,TGI,[51],2.41 µM
same,GI50,[52],1.91 µM
same,TGI,[52],21.5 µM
same,GI50,[53],1.05 µM
same,TGI,[53],30.7 µM
same,GI50,[54],1.97 µM
same,TGI,[54],13.4 µM
same,GI50,[55],0.379 µM
same,TGI,[55],2.16 µM
same,GI50,[56],0.284 µM
same,TGI,[56],4.85 µM
